According to patent US20200157638A1, “BIOMARKERS AND PATIENT SELECTION STRATEGIES” (SIERRA ONCOLOGY, INC., priority 2017, published 2020):

Key:
A673 = test: In vitro growth inhibition of cancer cell lines by SRA737; assay type: cell-based; conditions: A673 rhabdomyosarcoma cell line; CDKN2A/CDKN2B and BRCA1, Rad50, Rad51D alterations; FIG. 4
Text: (§1) In cancer cells, replication stress induced by oncogenes (e.g., MYC and RAS oncogenes) and/or loss of function in tumor suppressors (e.g., TP53) results in persistent DNA damage and genomic instability, a trigger of the DDR network. […] SK-BR-3 is a breast cancer cell line harboring a deleterious mutation is TP53 and amplification in c-MYC. HT-29 is a colorectal cancer (CRC) cell line harboring a deleterious mutation in the tumor suppressor gene, adenomatous polyposis coli (APC), an amplification in c-MYC, and an activation mutation in the oncogenes, BRAF and PIK3CA. DU-145 is metastatic prostate cancer cell line harboring a deleterious mutation in the tumor suppressors TP53 and RB1, an amplification in KRAS, and alterations of the DNA damage repair genes TP53B1, MLH1 and MSH3. A673 is a rhabdomyosarcoma cell line harboring genetic alterations in the tumor suppressor genes, CDKN2A and CDKN2B and genetic alterations in the DNA damage repair genes BRCA1, Rad50 and Rad51D. OVCAR-3 is an ovarian cancer cell line harboring a deleterious mutations in the tumor suppressors TP53 and RB1 and an amplification of CCNE1. […] The results of these in vitro experiments confirm that cancer cells with genetic alterations in tumor suppressor genes, oncogenes, and/or DNA damage repair genes are sensitive to inhibition of Chk1.

DU-145 = test: as above; assay type: cell-based; conditions: DU-145 metastatic prostate cancer cell line; TP53 and RB1 mutations, KRAS amplification; FIG. 4
Text: as §1

HT-29 = test: as above; assay type: cell-based; conditions: HT-29 colorectal cancer cell line; APC mutation, c-MYC amplification, BRAF and PIK3CA activation; FIG. 4
Text: as §1

OVCAR-3 = test: as above; assay type: cell-based; conditions: OVCAR-3 ovarian cancer cell line; TP53 and RB1 mutations, CCNE1 amplification; FIG. 5
Text: as §1

OVCAR-5 = test: as above; assay type: cell-based; conditions: OVCAR-5 ovarian cancer cell line; KRAS activation, CCNE1 overexpression; FIG. 5
Text: as §1

SK-BR-3 = test: as above; assay type: cell-based; conditions: SK-BR-3 breast cancer cell line; TP53 mutation, c-MYC amplification; FIG. 4
Text: as §1

OVCAR-3 xenograft [1] = test: OVCAR-3 xenograft model of HGSOC, SRA737 monotherapy (Example 2); assay type: in vivo; conditions: 100 mg/kg, 3 cycles, 5 days on and 2 days off; FIG. 6B
Text: The OVCAR-3 tumor cell line was derived from a platinum insensitive patient and harbors an amplification of CCNE1 (encoding cyclin E) and mutation in TP53 (encoding p53), two genomic alterations described herein to contribute to Chk1 inhibitor sensitivity.

OVCAR-3 xenograft [2] = test: OVCAR-3 xenograft model, SRA737 versus Olaparib (Example 3); assay type: in vivo, mouse; conditions: 100 mg/kg

## N#Cc1cnc(Nc2cc(NCC3CNCCO3)c(C(F)(F)F)cn2)cn1 (stereo not drawn) [SRA737, 5-[[4-[[morpholin-2-yl]methylamino]-5-(trifluoromethyl)-2-pyridyl]amino]pyrazine-2-carbonitrile]
A673
  sensitivity to Chk1 inhibition (growth inhibition): demonstrated sensitivity to Chk1 inhibition
DU-145
  sensitivity to Chk1 inhibition (growth inhibition): demonstrated sensitivity to Chk1 inhibition
HT-29
  sensitivity to Chk1 inhibition (growth inhibition): demonstrated sensitivity to Chk1 inhibition
OVCAR-3
  sensitivity to Chk1 inhibition (growth inhibition): demonstrated sensitivity to Chk1 inhibition
OVCAR-5
  sensitivity to Chk1 inhibition (growth inhibition): demonstrated sensitivity to Chk1 inhibition
SK-BR-3
  sensitivity to Chk1 inhibition (growth inhibition): demonstrated sensitivity to Chk1 inhibition
OVCAR-3 xenograft [1]
  tolerability (body weight loss): well tolerated as demonstrated by minimal body weight loss
OVCAR-3 xenograft [2]; FIG. 7A
  tumor growth as compared to Olaparib: significantly reduced tumor growth
OVCAR-3 xenograft [2]; FIG. 7B
  body weight: not significantly altered
